Test results published in patent US12691063B1, “Methods of using radiprodil in the treatment of disorders” (GRIN Therapeutics, Inc., priority 2023, dated 2026).
Several values for one entry are separate records, joined by “and”; a condition that tells them apart may be missing. Equal entries are not always repeated.

Legend:
NR2B receptor = target: T1, NR2B receptor (Rattus norvegicus, UniProt P35439+Q00960); assay: NR2B occupancy calculated from ex-vivo occupancy study in rodents; conditions: po; orally administered 1 mg/kg dose; calculated free plasma fraction; 1:1 brain to plasma ratio assumed
T1 construct: from tissue; host or cells: rodent brain (ex vivo)
Protocol: (§1) Radiprodil anticonvulsant efficacy was specifically tested in rats at different time points during postnatal development, using pentylenetetrazole (PTZ) as a convulsant, to induce generalized clonic-tonic seizures. The activity of radiprodil in this juvenile PTZ rat model was tested up to 30 mg/kg, showing efficacy at a dose of 1 mg/kg. The calculated free plasma fraction of an orally administered 1 mg/kg dose is expected to give around 60% occupancy of the NR2B receptor, based on an ex-vivo occupancy study in rodents and assuming a 1:1 brain to plasma ratio, see below for further details.

PTZ-induced convulsions = assay: Juvenile PTZ rat model of generalized clonic-tonic seizures; assay type: in vivo; conditions: 10 mg/kg; postnatal day 12 and postnatal day 18 rats
Protocol: as §1

[1] = tested on: patients with GRIN-related neurodevelopmental disorder and GoF variants, behavioral symptoms; assay: Open-label phase 1B study, behavioral cohort; assay type: in vivo, human
Excerpt: (§2) This is a global, open-label, multicenter, phase 1B study to evaluate the safety, tolerability, and PK of multiple individually titrated doses of radiprodil and to assess the treatment effect on seizures and behavioral symptoms in 2 cohorts of pediatric participants: 1 cohort of participants with drug resistant seizures (with or without behavioral symptoms) (Cohort 1) and 1 cohort of participants with behavioral symptoms (but no qualifying seizures) (Cohort 2) caused by GoF variants in the GRIN1, 2A, 2B, or 2D genes (GRIN2B GoF variants only in the US). These GoF variants are gene mutations that cause an increased sensitivity of NMDA receptors to glutamate or through decreased inhibition by magnesium, altered affinity to glycine, or other relevant changes considered to increase NMDA transmission. Drug-resistant seizures are defined as a failure to respond to at least 2 antiseizure medication (ASM) therapies taken at adequate doses for an appropriate duration with assured medication adherence as determined by the treating physician. Participants with seizures to be enrolled in the first cohort should have at least 1 observable motor seizure per week and ≥4 observable motor seizures in the prospective 4-week Observation Period.
A behavioral cohort of patients from 6 months to 12 years of age with known GoF variants confirmed via method described in Myers, et al., Hum Mol Genetics. 2023, 32:2857-2871, was enrolled. […] Motor seizures included drop seizures; generalized onset seizures included tonic-clonic, tonic, bilateral clonic, atonic, myoclonic-atonic, and myoclonic-tonic-clonic seizures; and focal seizures included seizures with bilateral hyperkinetic motor features and clonic seizures.

[2] = tested on: patients with GRIN-related neurodevelopmental disorder and GoF variants, countable motor seizures (CMS); assay: Open-label phase 1B study, seizure cohort; assay type: in vivo, human
Excerpt: Investigational Product (IP): Radiprodil. This example describes an open-label, multicenter phase 1B study being conducted to evaluate the safety, tolerability, and pharmacokinetics (PK) of multiple individually titrated doses of radiprodil and to assess the treatment effect on seizures in participants with drug-resistant seizures caused by gain-of-function (GoF) variants in the GRIN1, GRIN2A, GRIN2B, or GRIN2D genes (GRIN2B GoF variants in the US only).
as §2
A seizure cohort of patients from 6 months to 12 years of age with known GoF variants confirmed via method described in Myers, et al., Hum Mol Genetics. 2023, 32:2857-2871, was enrolled. The patients had drug-resistant seizures with or without behavioral symptoms. Patients also had ≥1 weekly countable motor seizure (CMS) with ≥4 generalized or focal seizures during the observation period. Motor seizures included drop seizures; generalized onset seizures included tonic-clonic, tonic, bilateral clonic, atonic, myoclonic-atonic, and myoclonic-tonic-clonic seizures; and focal seizures included seizures with bilateral hyperkinetic motor features and clonic seizures.
Primary endpoints included safety, tolerability, and radiprodil plasma concentrations. Key secondary endpoints (aka, change from baseline in observable daily CMS frequency using an electronic diary (eDiary)), included ≥50%, ≥90%, and 100% reductions from baseline in seizure frequency; proportion of seizure-free days; and Clinical Global Impressions of Change (CGI-C) and Caregiver Global Impressions of Change (CaGI-C), from baseline to the end of the maintenance period.

[3] = 4-week juvenile rat toxicology study; assay type: in vivo; conditions: 0.05 mg/kg bid starting dose
Protocol: The starting dose for each participant enrolled in the study will be set at 0.05 mg/kg bid. […] In patients with neuropathic pain, a total daily dose of 135 mg (45 mg tid) up to 14 weeks has been previously administered. […] Dose Escalation
For the sites not located in the US, based on the dedicated PBPK model, the increment will be a dose expected to give no more than a 2.5-fold higher plasma concentration.

[4] = all unrelated to radiprodil treatment

T1 sequence (Q00960 27-1482, other chains not shown): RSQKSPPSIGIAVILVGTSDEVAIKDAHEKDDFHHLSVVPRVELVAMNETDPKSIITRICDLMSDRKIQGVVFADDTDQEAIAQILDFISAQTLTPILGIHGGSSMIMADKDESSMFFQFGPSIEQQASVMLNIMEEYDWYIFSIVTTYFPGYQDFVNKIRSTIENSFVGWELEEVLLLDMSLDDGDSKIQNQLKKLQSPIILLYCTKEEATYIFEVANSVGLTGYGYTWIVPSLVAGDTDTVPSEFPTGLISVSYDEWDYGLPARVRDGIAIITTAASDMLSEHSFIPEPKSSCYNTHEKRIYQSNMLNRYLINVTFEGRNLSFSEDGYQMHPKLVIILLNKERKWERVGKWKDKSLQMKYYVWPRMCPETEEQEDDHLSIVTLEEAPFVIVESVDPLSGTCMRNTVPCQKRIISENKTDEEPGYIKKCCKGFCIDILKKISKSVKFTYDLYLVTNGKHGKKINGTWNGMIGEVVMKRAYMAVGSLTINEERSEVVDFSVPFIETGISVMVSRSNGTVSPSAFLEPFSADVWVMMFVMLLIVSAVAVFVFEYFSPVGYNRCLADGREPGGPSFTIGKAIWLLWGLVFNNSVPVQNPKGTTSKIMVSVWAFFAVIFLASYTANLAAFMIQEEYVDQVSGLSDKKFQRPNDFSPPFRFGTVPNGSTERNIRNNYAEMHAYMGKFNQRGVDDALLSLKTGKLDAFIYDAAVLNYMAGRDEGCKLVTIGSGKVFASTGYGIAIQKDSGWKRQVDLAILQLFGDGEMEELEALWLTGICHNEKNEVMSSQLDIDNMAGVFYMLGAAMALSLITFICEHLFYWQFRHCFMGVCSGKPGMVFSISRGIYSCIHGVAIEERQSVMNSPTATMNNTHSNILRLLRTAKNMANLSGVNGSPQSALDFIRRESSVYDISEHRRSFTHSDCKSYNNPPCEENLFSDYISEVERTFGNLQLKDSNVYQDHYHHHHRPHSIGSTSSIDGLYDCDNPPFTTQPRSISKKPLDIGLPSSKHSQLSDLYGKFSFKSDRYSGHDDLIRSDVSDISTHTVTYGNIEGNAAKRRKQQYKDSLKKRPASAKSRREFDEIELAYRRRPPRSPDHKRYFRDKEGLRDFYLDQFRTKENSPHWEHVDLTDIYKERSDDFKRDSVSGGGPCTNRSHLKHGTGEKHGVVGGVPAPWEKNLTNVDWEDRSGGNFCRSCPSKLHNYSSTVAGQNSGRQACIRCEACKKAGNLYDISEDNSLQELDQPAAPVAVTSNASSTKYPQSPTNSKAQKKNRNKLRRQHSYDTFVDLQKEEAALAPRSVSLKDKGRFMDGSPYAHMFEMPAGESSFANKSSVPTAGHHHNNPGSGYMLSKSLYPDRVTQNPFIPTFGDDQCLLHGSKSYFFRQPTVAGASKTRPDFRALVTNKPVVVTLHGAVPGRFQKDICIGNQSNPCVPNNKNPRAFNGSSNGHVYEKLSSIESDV

SMILES: O=C(Nc1ccc2[nH]c(=O)oc2c1)C(=O)N1CCC(Cc2ccc(F)cc2)CC1 [radiprodil, Radiprodil]
- receptor occupancy at 1 mg/kg (NR2B receptor): ~60%
- tonic phases of PTZ-induced convulsions (PTZ-induced convulsions): completely blocked
- Any TEAE ([1]; Behavioral Cohort (n = 7)): 6 (85.7) n (%)
- TEAE Abnormal behavior ([1]; Behavioral Cohort (n = 7)): 2 (28.6) n (%)
- TEAE Agitation ([1]; Behavioral Cohort (n = 7)): 2 (28.6) n (%)
- TEAE Cough ([1]; Behavioral Cohort (n = 7)): 1 (14.3) n (%)
- TEAE Diarrhea ([1]; Behavioral Cohort (n = 7)): 2 (28.6) n (%)
- TEAE Dystonia ([1]; Behavioral Cohort (n = 7)): 1 (14.3) n (%)
- TEAE Fatigue ([1]; Behavioral Cohort (n = 7)): 2 (28.6) n (%)
- TEAE Gastroenteritis ([1]; Behavioral Cohort (n = 7)): 1 (14.3) n (%)
- TEAE Pyrexia ([1]; Behavioral Cohort (n = 7)): 1 (14.3) n (%)
- TEAE Respiratory tract infection ([1]; Behavioral Cohort (n = 7)): 2 (28.6) n (%)
- tolerability ([1]; Example 9): generally well-tolerated
- patients who experienced SAEs [1, 4]: Three
- Caregiver Global Impressions of Change (CaGI-C) ([1]; caregivers, behavioral cohort): clinical improvement in most patients
- Clinical Global Impressions of Change (CGI-C) ([1]; clinicians, behavioral cohort): clinical improvement in most patients
- patients seizure-free during 80% of days ([2]; 8-week maintenance period): 6 of 7
- tolerability ([2]; Example 4): generally well-tolerated
- Any TEAE ([2]; Seizure Cohort (n = 8)): 8 (100) n (%)
- TEAE Abnormal behavior ([2]; Seizure Cohort (n = 8)): 1 (12.5) n (%)
- TEAE Agitation ([2]; Seizure Cohort (n = 8)): 1 (12.5) n (%)
- TEAE Cough ([2]; Seizure Cohort (n = 8)): 2 (25.0) n (%)
- TEAE Diarrhoea ([2]; Seizure Cohort (n = 8)): 2 (25.0) n (%)
- TEAE Dystonia ([2]; Seizure Cohort (n = 8)): 2 (25.0) n (%)
- TEAE Fatigue ([2]; Seizure Cohort (n = 8)): 1 (12.5) n (%)
- TEAE Gastroenteritis ([2]; Seizure Cohort (n = 8)): 2 (25.0) n (%)
- TEAE Pyrexia ([2]; Seizure Cohort (n = 8)): 4 (50.0) n (%)
- TEAE Respiratory tract infection ([2]; Seizure Cohort (n = 8)): 2 (25.0) n (%)
- seizure cohort patients with reductions from baseline in CMS frequency ([2]; after radiprodil treatment): 6 of the 7 and 6 of 7
- patients who experienced SAEs [2, 4]: Three
- Caregiver Global Impressions of Change (CaGI-C) ([2]; caregivers, seizure cohort): clinical improvement in most patients
- Clinical Global Impressions of Change (CGI-C) ([2]; clinicians, seizure cohort): clinical improvement in most patients
- reduction in CMS frequency in most patients ([2]; seizure cohort): ≥ 50%
- exposure level (total Cmax and AUC) lower than NOAEL exposure in juvenile rat toxicology study [3]: more than 20 fold
